In patent publication US7829665B2 (priority 2005, dated 2010):

Molecular target: T1, full-length NS3/NS4A-2 (HCV NS3 protease) (Hepatitis C virus genotype 1a, UniProt P27958)
T1 construct: Recombinant E. coli or Baculovirus full-length NS3 was diluted to 3.33 μM with assay buffer; made in house; host or cells: E. coli or baculovirus (BV) expression system
Test: NS3-NS4 protease assay / NS3 inhibition assay (RETS1 substrate, fluorescence kinetic read)
Type: biochemical
Details: not given
Experimental: NS3 complex formation with NS4A-2.
Recombinant E. coli or Baculovirus full-length NS3 was diluted to 3.33 μM with assay buffer and transferred material to an eppendorf tube and place in water bath in 4° C. refrigerator. The appropriate amount of NS4A-2 to 8.3 mM in assay buffer was added to equal the volume of NS3 in step 2.1.1 (conversion factor—3.8 mg/272 μL assay buffer). The material was transferred to an eppendorf tube and place in water bath in 4° C. refrigerator.
After equilibration to 4° C., equal volumes of NS3 and NS4A-2 solutions were combined in an eppendorf tube, mix gently with a manual pipettor, and incubate mixture for 15 minutes in the 4° C. water bath. Final concentrations in the mixture are 1.67 μM NS3, 4.15 mM NS4A-2 (2485-fold molar excess NS4A-2).
After 15 minutes at 4° C., the NS3/NS4A-2 eppendorf tube was removed and place it in a room temperature water bath for 10 minutes. NS3/NS4A-2 was alliquoted at appropriate volumes and store at −80° C. (E. coli NS3 run at 2 nM in assay, aliquot at 25 μL. BV NS3 run at 3 nM in assay, aliquot at 30 μL).
Sample compounds were dissolved to 10 mM in DMSO then diluted to 2.5 mM (1:4) in DMSO. Typically, compounds were added to an assay plate at 2.5 mM concentration, yielding upon dilution a starting concentration of 50 microM in the assay inhibition curve. Compounds were serial diluted in assay buffer to provide test solutions at lower concentrations.
The E. coli. NS3/NS4A-2 was diluted to 4 nM NS3 (1:417.5 of 1.67 μM stock−18 μL 1.67 μM stock+7497 μL assay buffer). The BV NS3/NS4A-2 was diluted to 6 nM NS3 (1:278.3 of 1.67 μM stock−24 μL 1.67 μM stock+6655 μL assay buffer). Using the manual multichannel pipettor, careful not to introduce bubbles into the plate, add 50 μL assay buffer to wells A01-H01 of a black Costar 96-well polypropylene storage plate.
Using the manual multichannel pipettor, careful not to introduce bubbles into the plate, add 50 μL of diluted NS3/NS4A-2 from step 2.2.6 to wells A02-H12 of plate in step 2.2.7. Using the manual multichannel pipettor, careful not to introduce bubbles into the plate, transfer 25 μL of the wells in drug dilution plate in step 2.2.5 to corresponding wells in assay plate in step 2.2.8. Change tips on multichannel pipettor for each row of compounds transferred. Using the manual multichannel pipettor, careful not to introduce bubbles into the plate, mix the wells from the assay plate in step 2.2.9 by aspirating and dispensing 35 μL of the 75 μL in each well five times. Change tips on multichannel pipettor for each row of wells mixed. Cover plate with a polystyrene plate lid and pre-incubate the plate from step 2.2.10 containing NS3 protease and sample compounds 10 minutes at room temperature. While plate from step 2.2.11 is pre-incubating, dilute RETS1 substrate in a 15 mL polypropylene centrifuge tube. Dilute RETS1 substrate to 8 μM (1:80.75 of 646 μM stock−65 μL 646 μM stock+5184 μL assay buffer).
After the plate in step is done pre-incubating, and using the manual multichannel, add 25 μL of substrate to all wells on the plate. Quickly mix the plate as in step 2.2.10, mixing 65 μL of the 100 μL in the wells.
Read the plate in kinetic mode on the Molecular Devices SpectraMax Gemini XS plate reader. Reader settings: Read time: 30 minutes, Interval: 36 seconds, Reads: 51, Excitation λ: 335 nm, Emission λ: 495 nm, cutoff: 475 nm, Automix: off, Calibrate: once, PMT: high, Reads/well: 6, Vmax pts: 21 or 28/51 depending on length of linearity of reaction
IC50 s are determined using a four parameter curve fit equation, and converted to Ki's using the following Km's: • Full-length E. coli NS3—2.03 μM • Full-length BV NS3—1.74 μM where Ki=IC50/(1+[S]/Km)) • Quantitation by ELISA of the selectable marker protein, Neomycin phosphotransferase II (NPTII) in the HCV Sub-Genomic Replicon, GS4.3

T1 sequence (P27958 1027-1657): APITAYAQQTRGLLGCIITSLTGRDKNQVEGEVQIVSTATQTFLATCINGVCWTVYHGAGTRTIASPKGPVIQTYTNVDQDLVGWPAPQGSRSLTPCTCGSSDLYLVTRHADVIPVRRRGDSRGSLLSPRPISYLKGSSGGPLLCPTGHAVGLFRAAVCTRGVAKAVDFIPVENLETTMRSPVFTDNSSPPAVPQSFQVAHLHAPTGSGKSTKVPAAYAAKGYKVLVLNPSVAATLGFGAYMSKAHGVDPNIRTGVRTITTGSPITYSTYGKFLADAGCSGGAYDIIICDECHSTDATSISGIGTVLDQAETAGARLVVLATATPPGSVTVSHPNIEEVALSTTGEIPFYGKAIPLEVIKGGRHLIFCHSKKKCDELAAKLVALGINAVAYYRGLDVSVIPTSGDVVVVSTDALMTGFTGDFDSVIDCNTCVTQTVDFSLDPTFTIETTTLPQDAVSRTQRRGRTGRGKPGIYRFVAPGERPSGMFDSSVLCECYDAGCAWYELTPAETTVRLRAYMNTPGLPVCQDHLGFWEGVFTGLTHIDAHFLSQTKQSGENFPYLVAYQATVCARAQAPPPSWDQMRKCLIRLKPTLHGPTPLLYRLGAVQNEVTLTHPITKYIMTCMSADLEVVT

In the case of `CC(C)(C)OC(=O)N[C@H]1COCCC/C=C\[C@@H]2C[C@@]2(C(=O)NS(=O)(=O)C2CC2)NC(=O)[C@@H]2C[C@@H](OC(=O)N3Cc4cccc(Cl)c4C3)CN2C1=O` [Compound 1025], the IC50 is reported as < 100 nM.

Same assay, conditions: Table 22; read-out: NS3-NS4 IC50

`Cc1ccc(NC(=O)[C@@]23C[C@H]2/C=C\CCCCC[C@H](NC(=O)OC(C)(C)C)C(=O)N2CCC[C@H]2C(=O)N3)cc1` [Compound 2316] and `CC(C)(C)OC(=O)N[C@H]1CCCCC/C=C\[C@@H]2C[C@@]2(C(=O)Nc2cccc(Cl)c2)NC(=O)[C@@H]2CCCN2C1=O` [Compound 2317] cannot be ordered by IC50: < 1000 nM for the first, < 1000 nM for the second.

`COC(=O)c1cccc(CNC(=O)[C@@]23C[C@H]2/C=C\CCCCC[C@H](NC(=O)OC(C)(C)C)C(=O)N2CCC[C@H]2C(=O)N3)c1` [Compound 2321] and `CCCNC(=O)[C@@]12C[C@H]1/C=C\CCCCC[C@H](NC(=O)OC(C)(C)C)C(=O)N1CCC[C@H]1C(=O)N2` [Compound 2319] cannot be ordered by IC50: < 1000 nM for the first, < 100 nM for the second.

With `CC(C)(C)CNC(=O)[C@@]12C[C@H]1/C=C\CCCCC[C@H](NC(=O)OC(C)(C)C)C(=O)N1CCC[C@H]1C(=O)N2` [Compound 2315] the IC50 was < 1000 nM.

Same assay, conditions: recombinant E. coli or Baculovirus full-length NS3 with NS4A-2; read-out: NS3-NS4 IC50

`CCOC(=O)[C@@]12C[C@H]1/C=C\CCCCC[C@H](NC(=O)OC(C)(C)C)C(=O)N1C[C@H](OC(=O)N3Cc4ccc(OCCNC(C)C)cc4C3)C[C@H]1C(=O)N2` [Compound 125] and `CNC(=O)NC(=O)[C@@]12C[C@H]1/C=C\CCCCC[C@H](NC(=O)OC(C)(C)C)C(=O)N1C[C@H](OC(=O)N3Cc4ccccc4C3)C[C@H]1C(=O)N2` [Compound 703] cannot be ordered by IC50: < 10000 nM for the first, < 1000 nM for the second.

`CC(C)(C)OC(=O)N[C@H]1CCN(S(=O)(=O)c2ccccc2[N+](=O)[O-])CC/C=C\[C@@H]2C[C@@]2(C(=O)NS(=O)(=O)C2CC2)NC(=O)[C@@H]2C[C@@H](OC(=O)N3Cc4cccc(F)c4C3)CN2C1=O` [Compound 1030, (2R,6S,13aS,14aR,16aS,Z)-6-(tert-butoxycarbonylamino)-14a-(cyclopropylsulfonylcarbamoyl)-9-(2-nitrophenylsulfonyl)-5,16-dioxo-1,2,3,5,6,7,8,9,10,11,13a,14,14a,15,16,16a-hexadecahydrocyclopropa(n)pyrrolo[2,1-c][1,4,9]triazacyclopentadecine-2-yl 4-fluoroisoindoline-2-carboxylate] and `CC(C)(C)C(O)C(=O)N[C@H]1CCCCC/C=C\[C@@H]2C[C@@]2(C(=O)NS(=O)(=O)C2CC2)NC(=O)[C@@H]2C[C@@H](OC(=O)N3Cc4cccc(F)c4C3)CN2C1=O` (single isomer, unassigned) [Compound 248] cannot be ordered by IC50: < 100 nM for the first, < 100 nM for the second.

`CC(C)(C)OC(=O)N[C@H]1CCCCC/C=C\[C@@H]2C[C@@]2(C(=O)NS(=O)(=O)c2ccc(F)cc2)NC(=O)[C@@H]2CCCN2C1=O` [Compound 2114] and `CC(C)(C)OC(=O)NC1CCCCCCCC=CC2CC2(C(=O)NS(=O)(=O)c2ccc([N+](=O)[O-])cc2)NC(=O)C2CCCN2C1=O` (centres unmarked) [Compound 2102] cannot be ordered by IC50: < 10000 nM for the first, < 10000 nM for the second.

`CC[C@@H]1C[C@H]2C(=O)N[C@]3(C(=O)O)C[C@H]3/C=C\CCCCC[C@H](NC(=O)OC3CCCC3)C(=O)N2C1` [Compound 313] and `O=C(N[C@H]1CCCCC/C=C\[C@@H]2C[C@@]2(C(=O)NS(=O)(=O)C2CC2)NC(=O)[C@@H]2CCCN2C1=O)OC1CCCC1` [Compound 312] cannot be ordered by IC50: < 10000 nM for the first, < 1000 nM for the second.

`CC(C)(C)OC(=O)N[C@H]1CCCCC/C=C\[C@@H]2C[C@@]2(C(=O)NS(=O)(=O)Cc2ccc(Cl)cc2)NC(=O)[C@@H]2CCCN2C1=O` [Compound 2119] and `CC(C)(C)OC(=O)N[C@H]1CCCCC/C=C\[C@@H]2C[C@@]2(C(=O)NS(=O)(=O)c2cccc(Cl)c2)NC(=O)[C@@H]2CCCN2C1=O` [Compound 2110] cannot be ordered by IC50: < 1000 nM for the first, < 10000 nM for the second.

`CN(c1cccc(Cl)c1)S(=O)(=O)NC(=O)[C@@]12C[C@H]1/C=C\CCCCC[C@H](NC(=O)OC(C)(C)C)C(=O)N1CCC[C@H]1C(=O)N2` [Compound 404] and `CC(C)(C)OC(=O)N[C@H]1CCCCC/C=C\[C@@H]2C[C@@]2(C(=O)NS(=O)(=O)Nc2cccc(Cl)c2)NC(=O)[C@@H]2CCCN2C1=O` [Compound 2239] cannot be ordered by IC50: < 10000 nM for the first, < 1000 nM for the second.

Compared with `CC(C)(C)OC(=O)N[C@H]1CCCCC/C=C\[C@@H]2C[C@@]2(C(=O)NS(=O)(=O)Nc2cccnc2)NC(=O)[C@@H]2CCCN2C1=O` [Compound 406], `CC(C)(C)OC(=O)N[C@H]1CCCCC/C=C\[C@@H]2C[C@@]2(C(=O)NS(=O)(=O)Nc2ccccc2Cl)NC(=O)[C@@H]2CCCN2C1=O` [Compound 2233] is lower in IC50: > 10000 nM for the first, < 1000 nM for the second. The second is the more potent here.

Going from `C=CCNS(=O)(=O)NC(=O)[C@@]12C[C@H]1/C=C\CCCCC[C@H](NC(=O)OC(C)(C)C)C(=O)N1CCC[C@H]1C(=O)N2` [Compound 2238] to `CC(C)(C)OC(=O)N[C@H]1CCCCC/C=C\[C@@H]2C[C@@]2(C(=O)NS(=O)(=O)NCCc2ccccc2Cl)NC(=O)[C@@H]2CCCN2C1=O` [Compound 402], the IC50 rises from < 1000 nM to > 10000 nM. The first is the more potent here.

First: CC(C)(C)OC(=O)N[C@H]1CCCCC/C=C\[C@@H]2C[C@@]2(C(=O)NC(=O)Nc2ccccc2)NC(=O)[C@@H]2C[C@@H](OC(=O)N3Cc4ccccc4C3)CN2C1=O [Compound 704]
Second: CC(C)(C)OC(=O)N[C@H]1CCCCC/C=C\[C@@H]2C[C@@]2(CO)NC(=O)[C@@H]2C[C@@H](OC(=O)N3Cc4cccc(F)c4C3)CN2C1=O [Compound 153, (2R,6S,13aS,14aR,16aS,Z)-6-(tert-botoxycarbonylamino)-14a-(hydroxymethyl)-5,16-dioxo-1,2,3,5,6,7,8,9,10,11,13a,14,14a,15,16,16a-hexadecahydrocyclopropa[e]pyrrolo[1,2-α][1,4]dizacyclopentadecin-2-yl-4-fluoroisoindoline-2-carboxylate]
The IC50 of the first is lower: < 10000 nM for the first, > 10000 nM for the second. The first is the more potent here.

`CC(C)(C)OC(=O)N[C@H]1CCCCC/C=C\[C@@H]2C[C@@]2(C(=O)NS(=O)(=O)CCc2ccccc2)NC(=O)[C@@H]2CCCN2C1=O` [Compound 2127] and `C[C@H](NS(=O)(=O)NC(=O)[C@@]12C[C@H]1/C=C\CCCCC[C@H](NC(=O)OC(C)(C)C)C(=O)N1CCC[C@H]1C(=O)N2)c1ccccc1` [Compound 416] cannot be ordered by IC50: < 10000 nM for the first, < 10000 nM for the second.

`COc1cccc(S(=O)(=O)NC(=O)[C@@]23C[C@H]2/C=C\CCCCC[C@H](NC(=O)OC2CCCC2)C(=O)N2C[C@H](OC(=O)N4CCc5ccccc5C4)C[C@H]2C(=O)N3)c1` [Compound 188] and `COc1ccccc1S(=O)(=O)NC(=O)[C@@]12C[C@H]1/C=C\CCCCC[C@H](NC(=O)OC(C)(C)C)C(=O)N1CCC[C@H]1C(=O)N2` [Compound 2122] cannot be ordered by IC50: < 100 nM for the first, < 1000 nM for the second.

`CN1CCC(N(C2CC2)S(=O)(=O)NC(=O)[C@@]23C[C@H]2/C=C\CCCCC[C@H](NC(=O)OC(C)(C)C)C(=O)N2CCC[C@H]2C(=O)N3)CC1` [Compound 2211] and `CC(C)(C)OC(=O)N[C@H]1CCCCC/C=C\[C@@H]2C[C@@]2(C(=O)NS(=O)(=O)C2CCCC2)NC(=O)[C@@H]2CCCN2C1=O` [Compound 2120] cannot be ordered by IC50: < 1000 nM for the first, < 1000 nM for the second.

`CC(C)(C)OC(=O)N[C@H]1CCCCC/C=C\[C@@H]2C[C@@]2(C(=O)NS(=O)(=O)Nc2ccc(C#N)cc2)NC(=O)[C@@H]2CCCN2C1=O` [Compound 2241] and `Cc1cc(Cl)cc(Cl)c1S(=O)(=O)NC(=O)[C@@]12C[C@H]1/C=C\CCCCC[C@H](NC(=O)OC(C)(C)C)C(=O)N1CCC[C@H]1C(=O)N2` [Compound 2123] cannot be ordered by IC50: < 1000 nM for the first, < 1000 nM for the second.
